Consider 24 molecules from patent publication US20250034218A1, “ANTIMICROBIAL PEPTIDES” (BiomEdit, LLC, priority 2021, published 2025).

Ends that are not written are not given here. A value given as a limit tells only on which side of the number the result lay.

For one experiment, the system named is Giardia. Kind of experiment: Giardia plate assay, % of control (Table 3). Format: cell-based. To be noted: Conc 10 (uM or %); plate G7. From the text: Data comparing AMP01 (wild type CAP 18 peptide (SEQ ID NO: 1) with various other agents is tabulated in Table 3. NTZ corresponds to nitazoxanide. ALB corresponds to albendazole.
In experiment [1] the test system is Bovine Respiratory Disease (BRD). The following applies: positive control treatment; reduces from approximately 30%; cited from earlier work.
The subject of experiment [2] is Escherichia coli Dh5alpha. Kind of experiment: MIC with diluted or undiluted trypsin and without trypsin (variant CAP18 peptides). Format: cell-based. To be noted: compared to WT CAP18. On the procedure:
(§1) Testing of CAP18 variants for protease resistance using Escherichia coli Dh5alpha as an indicator organism. CAP18 variants were synthesized from GenScript, Inc, and solubilized in sterile purified water to a final concentration of 4 mg/ml. E. coli DH5alpha was grown overnight in 10 ml LB broth. Ten microliters of each CAP18 variant was treated with 2 μl (or 2 μl of the 10-fold diluted trypsin) of trypsin (0.25%, Sigma Aldrich) and incubated at 37° C. for 2 or 5 minutes in a PCR machine. An MIC assay was set up using trypsin-treated CAP18 variants in a 96-well plate. Briefly, the peptides were serially diluted 2-fold in LB broth to achieve a final volume of 50 μl in each well and 50 μl of the E. coli DH5alpha culture adjusted to a concentration of 2×10^6 cells/ml was added into each well. Appropriate controls (media only control, no CAP18 control) were included on the same plate. The plates were incubated at 37° C. for 24-48 hours and MIC for each variant was recorded. The experiment was repeated 3 times.
Numerous variant CAP18 peptides were tested to determine and assess their resistance to protease. In each assessment, the variant CAP18 peptides were compared to wild type CAP18 rabbit sequence ([…] (SEQ ID NO:1)). Peptides were evaluated using trypsin diluted 1:10, 1:2 and undiluted. Experiments were conducted in duplicate. In each instance minimal inhibitory concentration (MIC) of the peptide was determined in the presence of the applicable diluted or undiluted trypsin and in the absence of trypsin. Experiments l and 2 are duplicate assessments with 1:10 diluted trypsin. Experiments 3 and 4 are duplicate assessments with 1:2 diluted trypsin. Experiments 5 and 6 are duplicate assessments with undiluted trypsin.

A further experiment concerns E. coli DH5 alpha. Type of experiment: cell-based, Escherichia coli. As for the experimental part:
A MIC assay was set up using heat treated CAP18 variants in a 96-well plate. […] Appropriate controls (media only control, no CAP18 control) were included on the same plate. The plates were incubated at 37° C. for 24-48 hours and MIC for each variant was recorded. The experiment was repeated 3 times.

Experiment [3] concerns E. coli DH5alpha. Format: cell-based, Escherichia coli. The following applies: peptide treated with proteinase K at 37° C. before MIC assay. As for the experimental part:
CAP18 peptide variants single mutants were evaluated for resistance to proteinase K. Peptides were subjected to proteinase K treatment and then assessed for bacterial cell killing (against E. coli) in a MIC assay.
as §1, with “CAP18” for “Testing of CAP18 variants for protease resistance using Escherichia coli Dh5alpha as an indicator organism. CAP18”, “μl” for “μl (or 2 μl”, “proteinase K (Qjagen, >600 mAU/ml)” for “the 10-fold diluted trypsin) of trypsin (0.25%, Sigma Aldrich)”, “machine. The samples were then incubated at 98° C. for 5 minutes to inactivate proteinase K.” for “machine.”, “proteinase K-treated” for “trypsin-treated”

The test system of experiment [4] is E. coli DH5alpha. Type of experiment: cell-based, Escherichia coli. The following applies: peptide treated with trypsin at 37° C. before MIC assay. On the procedure:
CAP18 peptide variants single mutants were evaluated for resistance to trypsin. Peptides were subjected to trypsin protease treatment and then assessed for bacterial cell killing (against E. coli) in a MIC assay.
as §1, with “CAP18” for “Testing of CAP18 variants for protease resistance using Escherichia coli Dh5alpha as an indicator organism. CAP18”, “machine. The samples were then incubated at 98° C. for 5 minutes to inactivate trypsin.” for “machine.”

Take `CCCSc1ccc2nc(NC(=O)OC)[nH]c2c1` [ALB, albendazole]: the “% of control MV” value in the experiment on Giardia amounted to 1.5%.
Turning to `CC(=O)Oc1ccccc1C(=O)Nc1ncc([N+](=O)[O-])s1` [NTZ, nitazoxanide], the “% of control MV” value with Giardia is reported as 0.6%.
Regarding `CCCNC[C@]1(O)[C@H](C)O[C@@H](O[C@H]2[C@H](C)[C@@H](O[C@@H]3O[C@H](C)C[C@H](N(C)C)[C@H]3O)[C@](C)(O)C[C@@H](C)CN[C@H](C)[C@@H](O)[C@](C)(O)[C@@H](CC)OC(=O)[C@@H]2C)C[C@@]1(C)OC` [tulathromycin], the lung consolidation in experiment [1] is reported as roughly 5%.
In the case of “CWTKSIPPKPCGCRKPLRKIRNKIKEKLKKIGQKIQGLLPKLAPRTDY (Description of sequence: Mutation Sequence) [SEQ ID NO: 22]”, the “activity (MIC) and protease resistance” value in experiment [2] was “better activity (lower MIC) and protease resistance”.
As for “CWTKSIPPKPCGLRKILKKIKNKIKEKLKKIGQKIQGLLPKLAPRTDY (Description of sequence: Mutation Sequence) [SEQ ID NO: 19]”, the “activity (MIC) and protease resistance” value in experiment [2] is “better activity (lower MIC) and protease resistance”.
The same measure, in the same setting: for “CWTKSIPPKPCGLRKKLKKIRNKIKEKLKKIGQKIQGLLPKLAPRTDY (Description of sequence: Mutation Sequence) [SEQ ID NO: 20]” the value was “better activity (lower MIC) and protease resistance”; for “CWTKSIPPKPCGLRKRLKKIKNKIKEKLKKIGQKIQGLLPKLAPRTDY (Description of sequence: Mutation Sequence) [SEQ ID NO: 18]”, “effective at the lowest concentration (lowest MIC) and was the most protease resistant in all experiments”.
With “CWTKSIPPKPCGLRKRLRKIKNKIKEKLKKIGQKIQGLLPKLAPKTDY (Description of sequence: Mutation Sequence) [SEQ ID NO: 21]”, in experiment [2], the “activity (MIC) and protease resistance” value was “better activity (lower MIC) and protease resistance”.
“GIRKRLRKFRNKIKEKLKKIGQKIQGLLPKLAPRTDY [C13]”: the “Thermotolerance at 90 for 5 minutes (MIC, ug/ml)” value (“Thermotolerance” for short) in the experiment on E. coli DH5 alpha is 200 µg/mL. Also, the “Resistance to proteinase K (MIC, ug/ml)” value in the experiment with E. coli DH5alpha [3] is greater than 400 µg/mL. Besides, the “Resistance to trypsin (MIC, ug/ml)” value in the experiment on E. coli DH5alpha [4] is 100 µg/mL.
On the same counts, the results for “GLKKRLRKFRNKIKEKLKKIGQKIQGLLPKLAPRTDY [C7]” are 200 µg/mL, greater than 400 µg/mL and 50 µg/mL.
On the same counts, the results for “GLRKKLRKFRNKIKEKLKKIGQKIQGLLPKLAPRTDY [C8]” are 100 µg/mL, 400 µg/mL and 50 µg/mL.
On the same counts, the results for “GLRKRIRKFRNKIKEKLKKIGQKIQGLLPKLAPRTDY [C14]” are 100 µg/mL, greater than 400 µg/mL and 50 µg/mL.
As for “GLRKRLKKFRNKIKEKLKKIGQKIQGLLPKLAPRTDY [C9]”, the “Thermotolerance” value in the experiment with E. coli DH5 alpha came out at 50 µg/mL. Moreover, the “Resistance to proteinase K (MIC, ug/ml)” value with E. coli DH5alpha [3] was 400 µg/mL. Besides, the “Resistance to trypsin (MIC, ug/ml)” value in the experiment on E. coli DH5alpha [4] is 400 µg/mL.
For “GLRKRLRKFKNKIKEKLKKIGQKIQGLLPKLAPRTDY [C10]”, the “Thermotolerance” value in the experiment with E. coli DH5 alpha was 100 µg/mL. Moreover, in the experiment with E. coli DH5alpha [3], the “Resistance to proteinase K (MIC, ug/ml)” value was determined as 400 µg/mL. Further, in the experiment on E. coli DH5alpha [4], the “Resistance to trypsin (MIC, ug/ml)” value came to 50 µg/mL.
On the same counts, the results for “GLRKRLRKFRNKIKEKIKKIGQKIQGLLPKLAPRTDY [C15]” are 200 µg/mL, greater than 400 µg/mL and 50 µg/mL.
As for “GLRKRLRKFRNKIKEKLKKIGQKIQGLLPKIAPRTDY [C16]”, in the experiment on E. coli DH5 alpha, the “Thermotolerance” value turned out to be 100 µg/mL. For the same molecule, the “Resistance to proteinase K (MIC, ug/ml)” value in the experiment on E. coli DH5alpha [3] was greater than 400 µg/mL. Further, in the experiment on E. coli DH5alpha [4], the “Resistance to trypsin (MIC, ug/ml)” value amounted to 50 µg/mL.
Regarding “GLRKRLRKFRNKIKEKLKKIGQKIQGLLPKLAPKTDY [C11]”, the “Thermotolerance” value with E. coli DH5 alpha amounted to 200 µg/mL. In the experiment with E. coli DH5alpha [3], the “Resistance to proteinase K (MIC, ug/ml)” value was greater than 400 µg/mL. Further, in the experiment with E. coli DH5alpha [4], the “Resistance to trypsin (MIC, ug/ml)” value worked out at 200 µg/mL.
In the case of “GLRKRLRKFRNKIKEKLKKIGQKIQGLLPKLAPRPDY [C6]”, the “Thermotolerance” value with E. coli DH5 alpha came out at 1200 µg/mL. For the same molecule, the “Resistance to proteinase K (MIC, ug/ml)” value in the experiment on E. coli DH5alpha [3] is greater than 400 µg/mL. Also, the “Resistance to trypsin (MIC, ug/ml)” value in the experiment with E. coli DH5alpha [4] was greater than 400 µg/mL.
With “GLRKRLRKFRNKIKEKLKKIGQKIQGLLPKPAPRTDY [C5]”, the “Thermotolerance” value in the experiment with E. coli DH5 alpha is greater than 400 µg/mL. Moreover, the “Resistance to proteinase K (MIC, ug/ml)” value in the experiment with E. coli DH5alpha [3] was greater than 400 µg/mL. The “Resistance to trypsin (MIC, ug/ml)” value with E. coli DH5alpha [4] turned out to be 400 µg/mL.
Take “GLRKRLRKFRNKIKPKLKKIGQKIQGLLPKLAPRTDY [C4]”: the “Thermotolerance” value in the experiment with E. coli DH5 alpha was found to be 400 µg/mL. For the same molecule, in the experiment with E. coli DH5alpha [3], the “Resistance to proteinase K (MIC, ug/ml)” value was greater than 400 µg/mL. In addition, in the experiment on E. coli DH5alpha [4], the “Resistance to trypsin (MIC, ug/ml)” value was greater than 400 µg/mL.
With “GLRKRLRKFRPKIKEKLKKIGQKIQGLLPKLAPRTDY [C3]”, the “Thermotolerance” value in the experiment with E. coli DH5 alpha is greater than 400 µg/mL. The “Resistance to proteinase K (MIC, ug/ml)” value in the experiment with E. coli DH5alpha [3] was greater than 400 µg/mL. The “Resistance to trypsin (MIC, ug/ml)” value with E. coli DH5alpha [4] was greater than 400 µg/mL.
Take “GLRKRLRKIRNKIKEKLKKIGQKIQGLLPKLAPRTDY [C12]”: the “Thermotolerance” value in the experiment on E. coli DH5 alpha came to 100 µg/mL. Further, the “Resistance to proteinase K (MIC, ug/ml)” value in the experiment with E. coli DH5alpha [3] turned out to be 200 µg/mL. Moreover, the “Resistance to trypsin (MIC, ug/ml)” value in the experiment on E. coli DH5alpha [4] is 100 µg/mL.
As for “GLRKRLRPFRNKIKEKLKKIGQKIQGLLPKLAPRTDY [C2]”, the “Thermotolerance” value in the experiment with E. coli DH5 alpha was determined as 100 µg/mL. Further, in the experiment on E. coli DH5alpha [3], the “Resistance to proteinase K (MIC, ug/ml)” value was greater than 400 µg/mL. In addition, in the experiment on E. coli DH5alpha [4], the “Resistance to trypsin (MIC, ug/ml)” value is greater than 400 µg/mL.
For “GLRPRLRKFRNKIKEKLKKIGQKIQGLLPKLAPRTDY [C1]”, the “Thermotolerance” value with E. coli DH5 alpha was found to be 200 µg/mL. Besides, the “Resistance to proteinase K (MIC, ug/ml)” value in the experiment on E. coli DH5alpha [3] is greater than 400 µg/mL. Further, in the experiment on E. coli DH5alpha [4], the “Resistance to trypsin (MIC, ug/ml)” value was determined as 100 µg/mL.
